Columns and labels:
[1] = molecular target: Serine/threonine-protein kinase mTOR (Homo sapiens, UniProt P42345); test: Inhibition of mTOR (unknown origin) preincubated for 15 mins and measured after 60 mins by Z-LYTE screening
Cytochrome P450 2D6 = Cytochrome P450 2D6 (Homo sapiens, UniProt P10635); test: Inhibition of CYP2D6 in human liver microsomes in the presence of NADPH incubated for 60 mins by LC-MS/MS analysis; type: ADME, Microsome
[2] = Toxicity in Beagle dogs assessed as effect on respiratory system at 5 to 20 mg/kg, po administrated as single dose upto 24 hrs; type: organism-based, Canis lupus familiaris; settings: dog, in vivo, dose 5-20 mg/kg
[3] = Drug metabolism in Beagle dogs liver cells at 2 uM incubated upto 120 mins by LC-MS/MS analysis; type: ADME, cell-based, Canis lupus familiaris; settings: dog, 2 h
NCI-H1703 = test: Synergistic antitumor activity against human NCI-H1703 cells xenografted in female Balb/c nude mouse assessed as tumor growth inhibition co administered with Gemcitabine at 40 mg/kg QD, po administered as 3 days on and 4 days off schedule for 4 weeks relative to control; type: functional; settings: NCI-H1703, 672 h, time 28 day, read-out: TGI
[4] = Drug metabolism in Sprague-Dawley rat liver cells at 2 uM incubated upto 120 mins by LC-MS/MS analysis; type: ADME, cell-based; settings: 2 h
[5] = Drug accumulation in female Beagle dogs at 5 mg/kg, IG measured for 7 days by LC-MS/MS analysis; type: ADME, organism-based, Canis lupus familiaris; settings: dog, in vivo, po, 168 h, time 7 day
[6] = Induction of CYP3A4 mRNA expression in human primary hepatocyte isolated from DZM donor at 0.1 to 10 uM incubated for 72 hrs by real-time PCR analysis; type: ADME, cell-based; settings: hepatocytes, dose 0.1-10 µM
[7] = Lipophilicity, logP of compound; type: physicochemical; settings: octanol/water
[8] = Drug accumulation in female Sprague-Dawley rat at 5 mg/kg, IG measured for 7 days by LC-MS/MS analysis; type: ADME, organism-based; settings: in vivo, po, 168 h, time 7 day
[9] = Permeability across apical to basolateral side in human MDCK-MDR1 cells at 0.1 to 10 uM incubated for 120 mins by LC-MS/MS analysis; type: ADME, cell-based, Canis lupus familiaris; settings: dog, mdck-mdr1, 2 h, dose 0.1-10 µM
CYP2C19 = CYP2C19 (Homo sapiens, UniProt P33261); test: Inhibition of recombinant human CYP2C19 assessed as residual activity at 1 uM in the presence of NADPH incubated for 60 mins by LC-MS/MS analysis relative to control; type: ADME; settings: read-out: Activity
CYP2C19, sequence (P33261 whole entry): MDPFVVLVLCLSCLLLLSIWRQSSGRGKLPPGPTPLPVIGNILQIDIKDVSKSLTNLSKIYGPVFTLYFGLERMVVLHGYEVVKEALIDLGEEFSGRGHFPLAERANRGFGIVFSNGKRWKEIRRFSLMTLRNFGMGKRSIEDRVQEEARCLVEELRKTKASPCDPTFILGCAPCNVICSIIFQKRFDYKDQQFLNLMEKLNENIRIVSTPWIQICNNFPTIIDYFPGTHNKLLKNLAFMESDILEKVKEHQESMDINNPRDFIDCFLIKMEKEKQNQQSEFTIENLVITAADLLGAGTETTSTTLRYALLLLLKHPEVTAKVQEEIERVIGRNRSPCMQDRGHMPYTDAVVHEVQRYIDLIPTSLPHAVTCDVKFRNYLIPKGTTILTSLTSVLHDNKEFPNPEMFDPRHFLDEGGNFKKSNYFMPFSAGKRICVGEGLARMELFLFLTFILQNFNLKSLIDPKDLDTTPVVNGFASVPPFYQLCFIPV

[10] = Drug metabolism in Beagle dog plasma by LC-MS/MS analysis; type: ADME, cell-free, Canis lupus familiaris; settings: 5 h, 1 µM
Cytochrome P450 2B6 = Cytochrome P450 2B6 (Homo sapiens, UniProt P20813); test: Inhibition of CYP2B6 in human liver microsomes in the presence of NADPH incubated for 60 mins by LC-MS/MS analysis; type: ADME, Microsome
Cytochrome P450 2B6, sequence (P20813 whole entry): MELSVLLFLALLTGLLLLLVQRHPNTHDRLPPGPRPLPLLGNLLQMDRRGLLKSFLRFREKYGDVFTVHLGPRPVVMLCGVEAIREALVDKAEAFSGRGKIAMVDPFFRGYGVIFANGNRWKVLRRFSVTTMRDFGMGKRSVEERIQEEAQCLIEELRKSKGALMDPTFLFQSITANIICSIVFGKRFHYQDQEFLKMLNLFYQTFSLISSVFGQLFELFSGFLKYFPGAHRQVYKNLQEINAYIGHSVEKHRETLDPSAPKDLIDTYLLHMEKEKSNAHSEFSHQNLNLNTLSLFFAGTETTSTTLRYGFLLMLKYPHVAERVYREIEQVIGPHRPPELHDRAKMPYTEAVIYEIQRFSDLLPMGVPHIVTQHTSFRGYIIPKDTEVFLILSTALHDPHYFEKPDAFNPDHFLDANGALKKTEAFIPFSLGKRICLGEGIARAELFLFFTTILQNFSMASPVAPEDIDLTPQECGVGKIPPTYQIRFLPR

Cytochrome P450 2C19 = Cytochrome P450 2C19 (Homo sapiens, UniProt P33261); test: Inhibition of CYP2C19 in human liver microsomes in the presence of NADPH incubated for 60 mins by LC-MS/MS analysis; type: ADME, Microsome
Cytochrome P450 2C19, sequence (P33261 whole entry): as the sequence (P33261 whole entry) above

CYP2D6 = CYP2D6 (Homo sapiens, UniProt P10635); test: Inhibition of recombinant human CYP2D6 assessed as residual activity at 1 uM in the presence of NADPH incubated for 60 mins by LC-MS/MS analysis relative to control; type: ADME; settings: read-out: Activity
CYP2D6, sequence (P10635 whole entry): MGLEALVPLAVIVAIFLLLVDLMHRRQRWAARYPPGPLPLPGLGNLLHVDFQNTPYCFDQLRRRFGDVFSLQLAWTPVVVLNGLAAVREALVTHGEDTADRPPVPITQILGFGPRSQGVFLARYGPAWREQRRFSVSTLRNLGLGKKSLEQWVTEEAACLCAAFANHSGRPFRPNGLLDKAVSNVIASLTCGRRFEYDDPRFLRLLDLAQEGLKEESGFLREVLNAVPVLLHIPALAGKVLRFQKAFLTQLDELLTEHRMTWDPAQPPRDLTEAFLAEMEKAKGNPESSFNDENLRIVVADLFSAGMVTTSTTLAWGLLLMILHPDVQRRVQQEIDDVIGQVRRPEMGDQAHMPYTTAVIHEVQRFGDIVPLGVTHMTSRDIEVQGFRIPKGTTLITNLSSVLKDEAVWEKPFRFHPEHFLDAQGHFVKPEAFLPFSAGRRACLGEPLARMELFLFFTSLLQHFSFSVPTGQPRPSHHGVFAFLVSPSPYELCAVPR

[11] = Drug metabolism in CD-1 mouse liver cells at 2 uM incubated upto 120 mins by LC-MS/MS analysis; type: ADME, cell-based; settings: 2 h
[12] = Stability in CD-1 mouse plasma assessed as half life by LC-MS/MS analysis; type: ADME, cell-free
LoVo [13] = test: Induction of apoptosis in human LoVo cells assessed as necrotic cells at 1 uM incubated for 24 hrs by Annexin-V-FITC-PI staining based flow cytometric analysis (reference value: 0.97 %); type: functional
[14] = Drug distribution in Sprague-Dawley rat liver at 5 mg/kg, IG administrated as single dose measured after 0.5 hrs by LC-MS/MS analysis; type: ADME, organism-based; settings: in vivo, po
[15] = Toxicity in female Balb/c nude mouse xenografted with human NCI-H1703 cells assessed as body weight at 40 mg/kg QD, po administered as 3 days on and 4 days off schedule for 4 weeks; type: organism-based; settings: in vivo, 672 h, time 28 day
[16] = Drug distribution in Sprague-Dawley rat small intestine at 5 mg/kg, IG administrated as single dose measured after 0.5 hrs by LC-MS/MS analysis; type: ADME, organism-based; settings: in vivo, po
[17] = Permeability across apical to basolateral side in human Caco-2 cells at 0.1 to 10 uM incubated for 120 mins by LC-MS/MS analysis; type: ADME, cell-based; settings: caco-2, 2 h, dose 0.1-10 µM
[18] = Toxicity in Beagle dogs assessed as effect on cardiovascular system at 5 to 20 mg/kg, po administrated as single dose upto 24 hrs; type: organism-based, Canis lupus familiaris; settings: dog, in vivo, dose 5-20 mg/kg
Hepatocyte = test: Cytotoxicity against human primary hepatocytes isolated from YND donor at 0.1 to 10 uM incubated for 72 hrs by cytotox-glo assay; type: toxicity, cell-based; settings: dose 0.1-10 µM
JeKo-1 = test: Antitumor activity against human JeKo-1 cells xenografted in female CB17 SCID mouse assessed as tumor growth inhibition at 30 mg/kg BID, po measured every 2 days for 24 days relative to control; type: functional; settings: JeKo-1, 576 h, time 24 day, read-out: TGI
[19] = Inhibition of DNA-PK (unknown origin) preincubated for 15 mins and measured after 60 mins by Z-LYTE screening; parameters: species or system Homo sapiens
Cytochrome P450 3A4 = Cytochrome P450 3A4 (Homo sapiens, UniProt P08684); test: Inhibition of CYP3A4 in human liver microsomes using midazolam as substrate and in presence of NADPH incubated for 60 mins by LC-MS/MS analysis; type: ADME, Microsome
Cytochrome P450 3A4, sequence (P08684 whole entry): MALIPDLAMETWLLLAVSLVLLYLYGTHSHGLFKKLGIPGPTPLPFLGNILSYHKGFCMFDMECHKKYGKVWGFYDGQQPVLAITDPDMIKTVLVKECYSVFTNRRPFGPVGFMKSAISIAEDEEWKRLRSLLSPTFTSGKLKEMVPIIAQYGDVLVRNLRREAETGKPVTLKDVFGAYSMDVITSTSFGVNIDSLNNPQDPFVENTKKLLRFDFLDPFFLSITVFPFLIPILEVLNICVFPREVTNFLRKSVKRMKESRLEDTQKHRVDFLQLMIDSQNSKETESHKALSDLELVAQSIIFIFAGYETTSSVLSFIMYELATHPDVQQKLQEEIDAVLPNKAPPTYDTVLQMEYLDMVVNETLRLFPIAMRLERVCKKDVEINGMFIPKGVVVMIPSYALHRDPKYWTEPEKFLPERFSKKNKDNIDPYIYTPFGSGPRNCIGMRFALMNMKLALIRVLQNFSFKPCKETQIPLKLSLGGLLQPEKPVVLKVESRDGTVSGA

[20] = Plasma protein binding in Sprague-Dawley rat at 1 uM incubated for 5 hrs in HTD dialysis in the presence of verapamil by LC-MS/MS analysis relative to control; type: ADME, cell-free; settings: read-out: PPB (converted)
[21] = Induction of CYP2B6 mRNA expression in human primary hepatocyte isolated from DZM donor at 0.1 to 10 uM incubated for 72 hrs by real-time PCR analysis; type: ADME, cell-based; settings: hepatocytes, dose 0.1-10 µM
[22] = Drug metabolism in Sprague-Dawley rat plasma by LC-MS/MS analysis; type: ADME, cell-free; settings: 5 h, 1 µM
[23] = Toxicity in female Balb/c nude mouse xenografted with human LoVo cells assessed as body weight at 40 mg/kg QD, po measured every 3 days for 25 days; type: organism-based; settings: in vivo, 600 h, time 25 day
[24] = Dissociation constant, pKa of compound; type: physicochemical
LoVo [25] = test: Induction of apoptosis in human LoVo cells assessed as necrotic cells at 3 uM incubated for 24 hrs by Annexin-V-FITC-PI staining based flow cytometric analysis (reference value: 0.97 %); type: functional
[26] = Toxicity in male Balb/c nude mouse xenografted with human 22Rv1 cells assessed as body weight at 40 mg/kg QD, po measured every 3 days for 25 days at 10 to 60 mg/kg QD, po measured every 3 days for 18 days; type: organism-based; settings: in vivo, 432 h, time 18 day
LoVo [27] = test: Induction of apoptosis in human LoVo cells assessed as early apoptotic cells at 1 uM incubated for 24 hrs by Annexin-V-FITC-PI staining based flow cytometric analysis (reference value: 13.7 %); type: functional

Cytochrome P450 2D6, sequence (P10635 whole entry): as the sequence (P10635 whole entry) above

With `Cc1nn(-c2cccnc2)c(C)c1-c1cc(N2CC3CCC(C2)O3)nc2c(-c3ccn[nH]3)cnn12.O=C(O)/C=C/C(=O)O` the IC50 [1] was 1.82 µM, the IC50 (Cytochrome P450 2D6) was over 100 µM and the Activity [2] was “Non-toxic”. The Drug metabolism [3] was “metabolite_detected”, the inhibition in vivo at 40 mg/kg (NCI-H1703) was 92.9% and the Drug metabolism [4] was “metabolite_detected”. The Drug uptake [5] was “Active”, the Activity [6] was “Active” and the logP [7] was 0.7. For the same compound, the Drug uptake [8] was “Active”, the permeability [9] was “Permeable” and the activity at 1 h, 1 µM (CYP2C19) was 109%. For the same compound, the Drug metabolism [10] was “metabolite_notdetected”, the IC50 (Cytochrome P450 2B6) was over 100 µM and the IC50 (Cytochrome P450 2C19) was 54.2 µM. The activity at 1 h, 1 µM (CYP2D6) was 101%, the Drug metabolism [11] was “metabolite_detected” and the half-life [12] was over 2 h. The Activity (LoVo [13]) was 0.8%, the Drug uptake [14] was “Active” and the Activity [15] was “Non-toxic”. The Drug uptake [16] was “Active”, the permeability [17] was “Permeable” and the Activity [18] was “Non-toxic”. The Activity (Hepatocyte) was “Non-toxic”, the inhibition in vivo at 30 mg/kg (JeKo-1) was 96.4% and the IC50 [19] was 0.24 µM. For the same compound, the IC50 (Cytochrome P450 3A4) was 48.4 µM, the fraction unbound at 5 h, 1 µM [20] was 0.136 and the Activity [21] was “Active”. For the same compound, the Drug metabolism [22] was “metabolite_notdetected”, the Activity [23] was “Non-toxic” and the pKa [24] was 4.25. The Activity (LoVo [25]) was 2.65%, the Activity [26] was “Non-toxic” and the Activity (LoVo [27]) was 18.2%.
